Results from patent US20250302833A1, “PHARMACEUTICAL COMPOSITION FOR TREATING OR PREVENTING CYSTIC DISEASE” (CHUGAI SEIYAKU KABUSHIKI KAISHA, priority 2022, published 2025).

Key:
[1] = test system: primary cells from kidney tissues of human ADPKD patients; experiment: Inhibition of three-dimensional cyst formation using primary cells from kidney tissue of human ADPKD patient; type: cell-based; conditions: 168 h, test compound 30 μM, forskolin + ITS stimulation, 7 days 3D culture, average N=3, read-out: Inhibition rate (%) of cyst formation
Protocol: Primary cells were isolated from kidney tissues of human ADPKD patients. Under two-dimensions, the isolated cells were cultured for 2 days using DMEM/F-12 (Thermo Fisher Scientific, Inc.) supplemented with 10% FBS. Subsequently, three-dimensional culture was performed for 7 days using 3D Ready Atelocollagen (KOKEN CO., LTD.). During three-dimensional culture, 50 µM forskolin (Sigma-Aldrich Co. LLC) and ITS liquid media supplements (Sigma-Aldrich Co. LLC) were added as stimulating agents to some of the wells to form cysts, and a test compound was added at the final concentration of 30 μM. The test compound was also added to other wells at the final concentration of 30 μM. After 7 days of three-dimensional culture, it was fixed with 4% paraformaldehyde (Thermo Fisher Scientific, Inc.), and nucleic acid staining and cell membrane staining were performed with Hoechst 33342 (Thermo Fisher Scientific, Inc.) and CellLight Plasma Membrane-RFP, BacMam 2.0 (Thermo Fisher Scientific, Inc.). Three-dimensional imaging and volume analysis were performed using Operetta CLS and image analysis software Harmony (PerkinElmer Japan G.K.). The inhibition rate was determined by the following formula.

[2] = test system: PC1 conditional knockout mice (PKD model); experiment: Suppression of increase in renal volume and decrease in renal function in PC1 conditional knockout mice; type: in vivo, mouse
Protocol: The PC1 conditional knockout mice, a PKD model, were used to evaluate the effects of tolvaptan and compound 4 in Test Example 1 on (a) renal volume, (b) body weight, and (c) urine volume in PC1 conditional knockout mouse.
Tamoxifen was orally administered to PC1 conditional knockout mice at a dose of 3 mg/kg for 3 days from day 21 after birth. The PC1 conditional knockout mice (5 weeks of age at the start of this test) were grouped into 3 groups of 15 mice each. Compound 4 or tolvaptan was administered as a single agent to the test compound administration group. The administration period was 16 weeks, and they were administered subcutaneously once daily. Compound 4 was administered at 33-40 mg/kg per dose and tolvaptan was administered at 25-30 mg/kg per dose. Compound 4 and tolvaptan were administered after dissolved in 50% DMSO/50% glycerol. A group of mice to which tamoxifen was not administered was provided as a normal control group (Normal Control) (N=7). The 50% DMSO/50% glycerol was administered to the normal control group and the Vehicle group of PC1 conditional knockout mice at 1 mL/kg.
The left renal volume (renal volume (mL)) of mice was calculated by the following formula using echography 16 weeks after the start of administration of the test compound.
After that, euthanasia treatment was performed. In addition, the body weight (Body weight (g)) of mice was measured every 7 days after the start of administration of the test compound. Furthermore, the volume of urine (Urine volume (mL/day)) was calculated from the specific gravity and measured weight of urine 16 weeks after the start of administration of the test compound.

human NaPi-IIb = target: T1, human NaPi-IIb (Homo sapiens, UniProt O95436); experiment: 33PO4 uptake inhibition in CHO cells expressing human NaPi-IIb; type: cell-based; conditions: CHO cells transiently expressing human NaPi-IIb, pH 6.5
T1 construct: expressed in transfected cells; host or cells: CHO cells, transient transfection with Fugene HD
T1 sequence (O95436 1-690): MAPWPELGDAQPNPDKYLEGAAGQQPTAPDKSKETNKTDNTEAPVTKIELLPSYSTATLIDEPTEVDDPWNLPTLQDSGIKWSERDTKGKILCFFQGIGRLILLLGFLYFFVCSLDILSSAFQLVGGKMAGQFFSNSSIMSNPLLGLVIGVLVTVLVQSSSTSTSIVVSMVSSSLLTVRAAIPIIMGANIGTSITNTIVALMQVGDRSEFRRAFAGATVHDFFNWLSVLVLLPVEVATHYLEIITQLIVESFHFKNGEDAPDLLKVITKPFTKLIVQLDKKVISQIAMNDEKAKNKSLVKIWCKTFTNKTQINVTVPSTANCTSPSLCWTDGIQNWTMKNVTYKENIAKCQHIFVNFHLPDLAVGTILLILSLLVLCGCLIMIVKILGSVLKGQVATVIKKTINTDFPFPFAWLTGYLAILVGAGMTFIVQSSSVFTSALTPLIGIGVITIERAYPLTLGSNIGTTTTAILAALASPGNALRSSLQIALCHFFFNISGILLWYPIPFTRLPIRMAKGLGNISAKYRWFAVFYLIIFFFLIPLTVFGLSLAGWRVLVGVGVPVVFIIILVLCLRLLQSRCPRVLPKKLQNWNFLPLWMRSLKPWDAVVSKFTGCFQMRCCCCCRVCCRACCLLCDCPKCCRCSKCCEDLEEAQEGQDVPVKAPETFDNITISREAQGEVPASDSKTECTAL
Protocol: For transient expression, human NaPi-IIb expression plasmids, human PiT1 expression plasmids, human PiT2 expression plasmids, and Fugene HD Transfection (Promega Corporation) were added to CHO cells using a 96-well plate, and the plate was incubated in a C02 incubator for 16 hours. The medium was replaced with buffer A (145 mM choline chloride, 3 mM KCl, 1 mM CaCl2), 0.5 mM MgCl2, 5 mM glucose, 5 mM MES, (pH 6.5)), and then replaced with buffer B (145 mM NaCl, 3 mM KCl, 1 mM CaCl2, 0.5 mM MgCl2, 5 mM glucose, 5 mM MES (pH 6.5)) to which a test compound was added at the final concentration of 0.01, 0.03, 0.1, 0.3, 1, 3, 10, or 30 μM, buffer A to which DMSO was added, or buffer B to which DMSO was added. After a certain time, a 1/20 amount of buffer A containing ^33PO4 (PerkinElmer Japan G. K.) was added and reacted at room temperature. After washing with ice-cooled buffer A, a liquid scintillator (MicroScint™-20, item number 6013621, PerkinElmer Japan G.K.) was added, and the ^33PO4 uptake amount was measured with the top count (Top Count NXT, PerkinElmer Japan G.K.). The inhibition rate was determined by the following formula. Here, a certain time was set to 10 minutes. The phrase “a 1/20 amount of buffer A containing ^33PO4 (PerkinElmer Japan G.K.) was added” refers to “buffer A containing ^33PO4 (PerkinElmer Japan G.K.) was added in an amount of 1/20 of the amount of solution filling the medium”.
The 50% ^33PO4-uptake inhibition concentrations (ICs) (UM) in a cell expressing human NaPi-Ilb, human PiT1, and human PiT2 were calculated from a straight line through two points sandwiching 50% inhibition rate. It should be noted that compounds 1 and 2 were not measured for baman PiT1 and human PiT2, which was indicated as “-” in Table 1.

Structure (SMILES): CCCN([C@H]1CC[C@H](C(=O)[O-])CC1)S(=O)(=O)c1cccc(C(=O)Nc2sc3c(c2C(=O)Nc2ccc(CCCc4ccc(C(=O)[O-])cc4)cc2)CCCC3)c1.[Na+].[Na+] [Compound 4, Disodium; 4-[3-[4-[[2-[[3-[(4-carboxylatocyclohexyl)-propylsulfamoyl]benzoyl]ami-no]-4,5,6,7-tetrahydro-1-benzothiophene-3-carbonyl]amino]phenyl]pro-pyl]benzoic acid]
- inhibition at 30 µM [1]: 94.4%
- Body weight (weight loss) ([2]; 16 weeks administration, compared to tolvaptan): less weight loss
- Urine volume ([2]; 16 weeks after start of administration, compared to tolvaptan): no increase in urine volume
- Suppression effect on decrease in renal function ([2]; 33-40 mg/kg s.c. once daily, 16 weeks): suppression effect
- Suppression effect on increase in renal volume ([2]; 33-40 mg/kg s.c. once daily, 16 weeks, left renal volume by echography): suppression effect
- IC50 (human NaPi-IIb): 0.031 µM
